Experimental data as given in US4048334A, “Active derivatives of methylamino in therapeutic compositions and methods of use” (priority 1974, dated 1977).
“Also recorded” adds a separate entry of the source.

Experiments:
[1] = test system: neuroleptic-induced catatonia; experiment: Inhibition of neuroleptic-induced catatonia (prochlorperazine); format: in vivo, rat (male, OFA strain)
Description: 2. Inhibition of neuroleptic-induced catatonia
The blocking of dopaminergic receptors by neuroleptics in the extra-pyramidal system induces catatonia in the rat. Catatonia is differentiated from sedative properties by means of the test used hereabove for reserpine-induced catatonia. The same system of scoring was also employed in the present case.
An oral dose of the compound to be studied in aqueous solution was administered to batches of 10 male rats of the OFA strain weighing about 150 to 200 g. […] Three hours after the injection of this latter compound, catatonia was measured. An identical trial was also carried out with control animals which received prochlorperazine but none of the compounds under study.
The scoring system, used was that given hereabove in Table I.

in vivo = conditions: mouse, mice, oral, aqueous solution, 10 days observation
catalepsy = experiment: Inhibition of catalepsy (crossing of homolateral paws, prochlorperazine); format: in vivo, rat; conditions: 5 mg/kg oral, 30 min before prochlorperazine i.p., 3 hours after
Description: Additional trials were carried out on rats with Compound 1 and amantadine. These trials involved catalepsy as evidenced by the crossing of the animals' homolateral paws.

[2] = test system: reserpine-induced catatonia; experiment: Suppression of reserpine-induced catatonia (curative treatment); format: in vivo, rat (male, OFA strain); parameters: key to catatonia score (maximum 5 per batch): number of animals (of 5) still in catatonia; max 5 per batch
Description: a. Suppression of reserpine-induced catatonia
Batches of 5 male rats of the OFA strain, weighing 150 to 200 g were given 5 mg/kg of reserpine by intraperitoneal route. One hour and 45 minutes later, namely when the animals were in a state of catatonia, an aqueous dose of the compound to be studied was administered by oral route to all the animals with the exception of the control group.
The progress of the catatonia was then noted following the scale used in the tests described hereabove.
The maximum score was thus 5 per batch which means that all the animals of the batch were considered to be still in a state of catatonia.

[3] = test system: neuroleptic-induced catatonia; experiment: Suppression of neuroleptic-induced catatonia (curative treatment, prochlorperazine); format: in vivo, rat (male, OFA strain); conditions: for catatonia score (5 rats per batch): 5 mg/kg oral
Description: b. Suppression of neuroleptic-induced catatonia
Batches of 5 male rats of the OFA strain were given 12.5 mg/kg of prochlorperazine by intraperitoneal route. Fifty-five minutes later, an oral dose in aqueous solution of the compound to be studied was administered to all the animals with the exception of the control group. The progress of the catatonia was noted following the same scale as that used in the tests described above.

[4] = test system: isolated duodenum of the rat; experiment: MAGNUS test: inhibition of acetylcholine spasm (cholinolytic / spasmolytic activity in vitro)
Excerpt: This test consists in determining the dose of acetylcholine which, when added to the bath, provokes spasm of the isolated duodenum of the rat. The next step consists in determining the dose of the compound under study which, when added to the bath 30 seconds before the acetylcholine, reduces the spasm.

[5] = test system: tremorine-induced cholinergic effects; experiment: Anti-tremorine test (cholinolytic properties in vivo); parameters: species or system mice (male, OF1 strain); key to peripheral cholinergic effects score (salivation, sweating, weeping): 0: no action; 1: slight action; 2: average action; 3: strong action; 4: very strong action
Description: For this purpose, the following test was performed with a view to determining the anti-tremorine properties of Compound 1.
When injected into mice, tremorine produces peripheral effects i.e. weeping, sweating, salivation and diarrhoea and central effects i.e. tremor and akinesia. Such effects are due to an increase in the amount of intracerebral acetylcholine and serotonine.
Male mice of the OF1 strain weighing about 22 g were divided into batches of 10. […] Thirty minutes later a dose of 10 mg/kg of tremorine was injected by intraperitoneal route and, at different times after this injection, note was taken of the cholinergic effects on each animal in accordance with the following scale: […]

electrocardiogram = experiment: Effect on the electrocardiogram; format: in vivo; conditions: dog, in vivo; listed as preferred compound of the invention
Emetic action = format: in vivo; conditions: dog, any dose
Excerpt: Furthermore, the compounds of the invention have no emetic action in the dog at any doses and are not cholinolytic agents.

[6] = Spasmolytic / cholinolytic (anticholinergic) activity in vivo or unspecified; conditions: at antiparkinsonian doses well below the toxic dose
[7] = test system: reserpine-induced and neuroleptic-induced catatonia and catalepsy; experiment: Central noradrenergic and dopaminergic properties (general statement); conditions: in vivo
Excerpt: These latter properties manifest themselves by an inhibitory action on reserpine-induced and neuroleptic-induced catatonia and catalepsy.

[8] = SPERBER et al., J. Amer. Chem. Soc., 71, 3352 (1949); cited from earlier work
[9] = test system: peripheral noradrenergic phenomena (arterial pressure, nictitating membrane); experiment: Influence on peripheral noradrenergic phenomena (norepinephrine, arterial pressure and nictitating membrane)

CCCC(N)(CCC)CCC [Compound 1]
Inhibition of the neuroleptic-induced catatonia ([1]; 1 mg/kg): 70%
Inhibition of the neuroleptic-induced catatonia ([1]; 5 mg/kg oral, 30 min before prochlorperazine 12.5 mg/kg i.p.): 4 (100% inhibition of catatonia in comparison with the controls (namely a score of 0 per studied batch))
activity compared with amantadine, neuroleptic-induced catatonia ([1]; versus amantadine): twenty times more active than amantadine
LD50 at 240 h (in vivo): 100 mg/kg
inhibition of the catalepsy (catalepsy): complete inhibition of the catalepsy
catatonia score (maximum 5 per batch) ([2]; 2.5 mg/kg oral, 2h15 after reserpine): 3
catatonia score (maximum 5 per batch) ([2]; 2.5 mg/kg oral, 2h30 after reserpine): 2
catatonia score (maximum 5 per batch) ([2]; 2.5 mg/kg oral, 3h30 after reserpine): 0
catatonia score (maximum 5 per batch) ([2]; 2.5 mg/kg oral, 2h after reserpine): 4
catatonia score (maximum 5 per batch) ([2]; 2.5 mg/kg oral, 3h after reserpine): 0
catatonia score (maximum 5 per batch) ([2]; 2.5 mg/kg oral, 4h after reserpine): 0
catatonia score (maximum 5 per batch) ([2]; 2.5 mg/kg oral, 5h after reserpine): 0
catatonia score (maximum 5 per batch) ([2]; 5 mg/kg oral, 2h15 after reserpine): 1
catatonia score (maximum 5 per batch) ([2]; 5 mg/kg oral, 2h30 after reserpine): 0
catatonia score (maximum 5 per batch) ([2]; 5 mg/kg oral, 3h30 after reserpine): 0
catatonia score (maximum 5 per batch) ([2]; 5 mg/kg oral, 2h after reserpine): 5
catatonia score (maximum 5 per batch) ([2]; 5 mg/kg oral, 3h after reserpine): 0
catatonia score (maximum 5 per batch) ([2]; 5 mg/kg oral, 4h after reserpine): 0
catatonia score (maximum 5 per batch) ([2]; 5 mg/kg oral, 5h after reserpine): 0
rapidity of suppression of reserpine-induced catatonia ([2]; 2.5 and 5 mg/kg oral versus amantadine 80 mg/kg): suppresses reserpine-induced catatonia more rapidly than a dose of 80 mg/kg of amantadine
times more active than amantadine, reserpine-induced catatonia, curative treatment ([2]; versus amantadine): at least 32 times
catatonia score (5 rats per batch) ([3]; 1h30 after prochlorperazine): 3
catatonia score (5 rats per batch) ([3]; 2h30 after prochlorperazine): 0
catatonia score (5 rats per batch) ([3]; 3h30 after prochlorperazine): 0
catatonia score (5 rats per batch) ([3]; 3h after prochlorperazine): 0
catatonia score (5 rats per batch) ([3]; 4h after prochlorperazine): 0
catatonia score (5 rats per batch) ([3]; 5h after prochlorperazine): 0
rapidity of action against neuroleptic-induced catatonia ([3]; 5 mg/kg versus amantadine 80 mg/kg): acts against neuroleptic-induced catatonia more rapidly than does a dose of 80 mg/kg of amantadine
times more active than amantadine, neuroleptic-induced catatonia, curative treatment ([3]; versus amantadine): at least 16 times
spasmolytic activity in vitro [4]: very weak, in fact practically non-existent
% of inhibition of the spasm ([4]; 0.1 × 10^-3 g/ml of bath): 0%
% of inhibition of the spasm ([4]; 0.1 × 10^-4 g/ml of bath): 0%
% of inhibition of the spasm ([4]; 0.1 × 10^-5 g/ml of bath): 0%
% of inhibition of the spasm ([4]; 0.2 × 10^-2 g/ml of bath): 36%
% of inhibition of the spasm ([4]; 0.2 × 10^-6 g/ml of bath): 0%
% of inhibition of the spasm ([4]; 0.5 × 10^-2 g/ml of bath): 60%
cholinolytic activity in vitro ([4]; in comparison with atropine): virtually non-existent
peripheral cholinergic effects score (salivation, sweating, weeping) ([5]; 5 mg/kg oral, 20, 30 and 40 minutes after tremorine 10 mg/kg i.p.): 4
central cholinergic effects (normal and provoked tremor) ([5]; 5 mg/kg oral, identical to the peripheral score (4)): Identical results
antitremorine properties ([5]; mouse, in vivo): devoid of antitremorine properties
effect on the electrocardiogram (electrocardiogram): does not cause any undesirable effect on the electrocardiogram; also recorded: devoid of emetic properties and of undesirable side-effects on the electrocardiogram
emetic action (Emetic action): devoid of emetic properties
spasmolytic activity in vivo [6]: non-existent
degree of activity [7]: marked degree of activity
spasmolytic activity and toxicity versus corresponding trialkylethylamines [8]: less spasmolytic and more toxic than the corresponding trialkylethylamines
Contractile reaction of the nictitating membrane with electric stimulation ([9]; cumulative dose 0.1 mg/kg i.v.): 15 mm
Contractile reaction of the nictitating membrane without electric stimulation ([9]; cumulative dose 0.1 mg/kg i.v.): 0 mm
Increase in arterial pressure after injection of norepinephrine ([9]; cumulative dose 0.1 mg/kg i.v.): 18 mm Hg
Contractile reaction of the nictitating membrane with electric stimulation ([9]; cumulative dose 1 mg/kg i.v.): 16 mm
Contractile reaction of the nictitating membrane without electric stimulation ([9]; cumulative dose 1 mg/kg i.v.): 0 mm
Increase in arterial pressure after injection of norepinephrine ([9]; cumulative dose 1 mg/kg i.v.): 25 mm Hg
Contractile reaction of the nictitating membrane with electric stimulation ([9]; cumulative dose 3 mg/kg i.v.): 17 mm
Contractile reaction of the nictitating membrane without electric stimulation ([9]; cumulative dose 3 mg/kg i.v.): 0 mm
Increase in arterial pressure after injection of norepinephrine ([9]; cumulative dose 3 mg/kg i.v.): 29 mm Hg
Contractile reaction of the nictitating membrane with electric stimulation ([9]; cumulative dose 5 mg/kg i.v.): 16 mm
Contractile reaction of the nictitating membrane without electric stimulation ([9]; cumulative dose 5 mg/kg i.v.): 0 mm
Increase in arterial pressure after injection of norepinephrine ([9]; cumulative dose 5 mg/kg i.v.): 25 mm Hg
Contractile reaction of the nictitating membrane with electric stimulation ([9]; cumulative dose 10 mg/kg i.v.): 12 mm
Contractile reaction of the nictitating membrane without electric stimulation ([9]; cumulative dose 10 mg/kg i.v.): 0 mm
Increase in arterial pressure after injection of norepinephrine ([9]; cumulative dose 10 mg/kg i.v.): 22 mm Hg
ganglioplegic action ([9]; in vivo): is not a ganglioplegic agent
potentiation of (peripheral) effects of norepinephrine ([9]; in vivo): does not potentiate the effects either of exogenous norepinephrine or of endogenous norepinephrine
potentiation of (peripheral) effects of norepinephrine ([9]; in vivo, listed as preferred compound of the invention): does not potentiate the peripheral effects of norepinephrine
